Here are results for 21 compounds from US10954240B2, “Compounds inhibiting leucine-rich repeat kinase enzyme activity” (Merck Sharp & Dohme Corp., priority 2014, dated 2021).

Data set [1] can be described thus: Rat pharmacokinetics, oral AUC. Particulars: single oral dose 10 mpk, plasma; for AUC: 10 mg/kg. Format: in vivo. An excerpt: Representative Example of a Pharmacokinetic Measurement
The pharmacokinetics of a compound of the invention (amorphous free form) can be studied following single intravenous and/or oral administration to mouse, rat, dog and/or monkey. In the present study, the pharmacokinetics of selected compounds of the invention (amorphous free form) were studied following single intravenous and/or oral administration to rat. The IV solution formulations contained 30% captisol/70% water or 1/1 DMSO/PEG-400. The PO solution formulations contained 10% tween/90% PEG-400 or 40% PEG-400/25% of a aqueous HPBCD solution (20%)/35% water. All IV formulations were given as solutions and all PO doses were given as well-behaved suspensions or solutions. Animals were fasted prior to oral dosing in single-dose studies. Oral bioavailability was estimated using non-cross-over study designs (n=2 or 3). Plasma samples were assayed using protein precipitation with acetonitrile/methanol (90/10, v/v) followed by HPLC/MS/MS analysis employing positive-ion Turbo IonSpray ionization. Plasma concentration-time data were analyzed by non-compartmental methods and expressed as AUC (area under the curve) values. Holding dose constant, higher oral AUC values represent greater oral plasma exposure.
The tables above provide oral AUC values for example 1, 8, 12, 17, and 20, in which the compound was dosed in rats at 10 mpk via a method similar to that described above.

In data set [2] the target is LRRK2 (G2019S mutation, GST-LRRK2 (amino acids 970-2527)) (Homo sapiens (Human), UniProt Q5S007, G2019S). Put plainly: LRRK2 Km ATP LanthaScreen Assay. The data set is classed as biochemical. Particulars: mean IC50 of several test results. The source says:
Unless otherwise noted, all LRRK2 IC50 data presented in tables refers to the LRRK2 Km ATP LanthaScreen™ Assay that is described in the Biological Assay section.
The data presented for the Km ATP LanthaScreen™ Assay represents mean IC50 values based on several test results and may have reasonable deviations depending on the specific conditions and reagents used. Reagents for the LRRK2 Km ATP LanthaScreen™ Assay were purchased from Life Technologies Corporation.
LRRK2 Km ATP LanthaScreen™ Assay
a) 400 nl of a 1:2.15 serial dilution of test compound (98 μM top assay concentration) is spotted via Labcyte Echo to certain wells in a 384 well black, untreated plate. Control wells contain 400 nl of either DMSO or 400 nl of a known inhibitor in DMSO.
c) A 30 minute room temperature incubation is followed by addition of 10 μl of 800 nM fluorescein labeled LRRKtide peptide substrate and 186 μM ATP solution in 1× assay buffer to all wells.
d) After a 60 minute room temperature incubation, 20 μl of TR-FRET Dilution Buffer (Invitrogen PV3756B) containing 4 nM Tb-labeled anti-phospho LRRKtide antibody and 20 mM EDTA is added to all wells.
e) Plates are incubated at room temperature for 1 hour and read on an Envision™ multi-mode plate reader with LanthaScreen™ settings. Results are analysed using Assay Data Analyzer.
(In general: In TR-FRET formats the signal depends on donor and acceptor labels being close together.)

Sequence of LRRK2 (G2019S mutation, GST-LRRK2 (amino acids 970-2527)) (Q5S007 970-2527 G2019S): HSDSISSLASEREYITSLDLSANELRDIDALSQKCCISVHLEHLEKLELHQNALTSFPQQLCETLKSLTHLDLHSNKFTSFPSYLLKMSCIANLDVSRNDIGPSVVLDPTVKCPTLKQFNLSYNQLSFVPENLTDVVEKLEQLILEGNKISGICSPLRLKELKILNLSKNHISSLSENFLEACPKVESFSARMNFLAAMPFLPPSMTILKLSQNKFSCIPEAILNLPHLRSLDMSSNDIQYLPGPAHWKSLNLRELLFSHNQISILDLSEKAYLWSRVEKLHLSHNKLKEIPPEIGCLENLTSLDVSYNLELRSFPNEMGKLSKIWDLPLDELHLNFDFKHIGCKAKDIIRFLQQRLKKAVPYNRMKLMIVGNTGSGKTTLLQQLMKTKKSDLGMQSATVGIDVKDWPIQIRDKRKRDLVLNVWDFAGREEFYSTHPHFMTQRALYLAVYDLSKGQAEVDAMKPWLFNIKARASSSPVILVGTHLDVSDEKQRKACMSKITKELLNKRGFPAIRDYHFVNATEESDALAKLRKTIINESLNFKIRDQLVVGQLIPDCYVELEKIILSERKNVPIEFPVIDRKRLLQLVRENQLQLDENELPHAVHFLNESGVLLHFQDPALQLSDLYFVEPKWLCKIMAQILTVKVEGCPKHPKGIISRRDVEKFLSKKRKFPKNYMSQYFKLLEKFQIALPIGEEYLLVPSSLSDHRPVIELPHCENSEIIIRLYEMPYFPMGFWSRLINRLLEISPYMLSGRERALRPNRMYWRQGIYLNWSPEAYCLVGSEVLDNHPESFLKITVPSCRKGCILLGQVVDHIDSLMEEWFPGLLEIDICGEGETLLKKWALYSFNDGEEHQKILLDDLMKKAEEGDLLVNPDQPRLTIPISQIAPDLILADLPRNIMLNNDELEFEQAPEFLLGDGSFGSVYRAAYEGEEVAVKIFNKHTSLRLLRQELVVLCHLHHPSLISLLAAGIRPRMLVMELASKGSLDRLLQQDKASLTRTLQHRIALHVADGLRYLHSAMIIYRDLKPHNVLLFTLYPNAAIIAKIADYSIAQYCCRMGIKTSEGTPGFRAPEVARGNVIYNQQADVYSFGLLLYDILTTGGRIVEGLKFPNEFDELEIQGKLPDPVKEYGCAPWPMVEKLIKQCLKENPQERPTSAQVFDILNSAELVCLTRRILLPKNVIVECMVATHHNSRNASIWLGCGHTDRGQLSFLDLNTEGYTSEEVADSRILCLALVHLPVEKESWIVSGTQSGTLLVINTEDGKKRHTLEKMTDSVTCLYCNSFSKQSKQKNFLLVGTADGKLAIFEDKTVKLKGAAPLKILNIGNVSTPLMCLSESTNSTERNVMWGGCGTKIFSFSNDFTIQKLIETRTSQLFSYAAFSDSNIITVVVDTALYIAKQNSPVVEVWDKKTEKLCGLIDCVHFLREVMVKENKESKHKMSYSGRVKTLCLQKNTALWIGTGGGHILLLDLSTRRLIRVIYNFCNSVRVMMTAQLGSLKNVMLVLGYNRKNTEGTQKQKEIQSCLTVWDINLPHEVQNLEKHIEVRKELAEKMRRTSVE

As a reminder, the AUC is the area under the concentration-time curve, a measure of exposure. The low end stands for less exposure, the high end for more exposure. For the compound `Cn1cc(-c2ccc3cnn(-c4ccnc(N5CCOCC5)c4)c3c2)cn1` [Example 1, 4-(4-(6-(1-methyl-1H-pyrazol-4-yl)-1H-indazol-1-yl)pyridin-2-yl)morpholine], in data set [1], the AUC is 2.1 µM·h and the “Rat AUC 10 mpk PO” value came out at 2.1 ± 0.09 µM·h.
Broadly, the IC50 is the midpoint of a concentration-inhibition curve. A higher IC50 goes with a need for much substance. In the case of `Cn1cc(-c2ccc3cnn(-c4ccnc(N5CCN(S(C)(=O)=O)CC5)c4)c3c2)cn1` [Example 8, 6-(1-methyl-1H-pyrazol-4-yl)-1-(2-(4-(methylsulfonyl)piperazin-1-yl)pyridin-4-yl)-1H-indazole], in data set [1], the exposure (AUC) came to 41 µM·h and the “Rat AUC 10 mpk PO” value amounted to 41 ± 26 µM·h. In data set [2], this compound had an IC50 of 45 nM.
In data set [1], `Cn1cc(-c2ccc3cnn(-c4ccnc(N5CC[C@@H](F)C5)c4)c3c2)cn1` [Example 12, (R)-1-(2-(3-fluoropyrrolidin-1-yl)pyridin-4-yl)-6-(1-methyl-1H-pyrazol-4-yl)-1H-indazole] displayed an AUC of 0.82 µM·h. For the same compound, the midpoint of inhibition in data set [2], the IC50, lay at 89 nM.
Regarding `COc1ccncc1-c1ccc2cnn(-c3ccnc(N4CCOCC4)c3)c2c1` [Example 17, 4-(4-(6-(4-methoxypyridin-3-yl)-1H-indazol-1-yl)pyridin-2-yl)morpholine], in data set [1], the AUC is 10 µM·h and the “Rat AUC 10 mpk PO” value is 10 ± 2.5 µM·h. In data set [2], the IC50 was 43 nM.
On the same counts, the results for `CN(C)C(=O)CN1CCN(c2cc(-n3ncc4ccc(-c5cnn(C)c5)cc43)ccn2)CC1` [Example 20, N,N-dimethyl-2-(4-(4-(6-(1-methyl-1H-pyrazol-4-yl)-1H-indazol-1-yl)pyridin-2-yl)piperazin-1-yl)acetamide] are 1 µM·h, 1.0 ± 0.19 µM·h and 34 nM.
In data set [2], `C[C@@H]1CN(c2cc(-n3ncc4ccc(-c5cnn(C)c5)cc43)ccn2)CCO1` [Example 49, (R)-2-methyl-4-(4-(6-(1-methyl-1H-pyrazol-4-yl)-1H-indazol-1-yl)pyridin-2-yl)morpholine] came in with an IC50 of 89 nM.
Same read-out and setting: as for `C[C@H]1CN(c2cc(-n3ncc4ccc(-c5cnn(C)c5)cc43)ccn2)CCO1` [Example 50, (S)-2-methyl-4-(4-(6-(1-methyl-1H-pyrazol-4-yl)-1H-indazol-1-yl)pyridin-2-yl)morpholine], the figure is 141 nM.
Turning to `CCc1nnc2n1CCN(c1cc(-n3ncc4ccc(-c5cnn(C)c5)cc43)ccn1)C2` [Example 51, 3-ethyl-7-(4-(6-(1-methyl-1H-pyrazol-4-yl)-1H-indazol-1-yl)pyridin-2-yl)-5,6,7,8-tetrahydro-[1,2,4]triazolo[4,3-a]pyrazine], the IC50 in data set [2] was 217 nM.
On the same count and under the same terms, as for `Cn1cc(-c2ccc3cnn(-c4ccnc(N5CCn6ccnc6C5)c4)c3c2)cn1` [Example 52, 7-(4-(6-(1-methyl-1H-pyrazol-4-yl)-1H-indazol-1-yl)pyridin-2-yl)-5,6,7,8-tetrahydroimidazo[1,2-a]pyrazine], the figure is 189 nM; as for `Cn1cc(-c2ccc3cnn(-c4ccnc(N5CCC(C)(O)C5)c4)c3c2)cn1` (centres unmarked) [Example 53, 3-methyl-1-(4-(6-(1-methyl-1H-pyrazol-4-yl)-1H-indazol-1-yl)pyridin-2-yl)pyrrolidin-3-ol], 131 nM; as for `Cn1cc(-c2ccc3cnn(-c4ccnc(N5CCN(c6ccncn6)CC5)c4)c3c2)cn1` [Example 54, 6-(1-methyl-1H-pyrazol-4-yl)-1-(2-(4-(pyrimidin-4-yl)piperazin-1-yl)pyridin-4-yl)-1H-indazole], 97 nM.
Same read-out and setting: as for `Cn1cc(-c2ccc3cnn(-c4ccnc(N5CCN(CCO)CC5)c4)c3c2)cn1` [Example 55, 2-(4-(4-(6-(1-methyl-1H-pyrazol-4-yl)-1H-indazol-1-yl)pyridin-2-yl)piperazin-1-yl)ethanol], the figure is 70 nM; as for `CS(=O)(=O)N1CCN(c2cc(-n3ncc4ccc(-c5cccnc5)cc43)ncn2)CC1` [Example 62, 1-{6-[4-(methylsulfonyl)piperazin-1-yl]pyrimidin-4-yl}-6-pyridin-3-yl-1H-indazole], 486 nM; as for `Cn1cc(-c2ccc3cnn(-c4cc(N5CCN(S(C)(=O)=O)CC5)ncn4)c3c2)cn1` [Example 63, 6-(1-methyl-1H-pyrazol-4-yl)-1-{6-[4-(methylsulfonyl)piperazin-1-yl]pyrimidin-4-yl}-1H-indazole], 317 nM.
The same measure, in the same setting: the result for `CS(=O)(=O)N1CCN(c2cc(-n3ncc4ccc(-c5ccn[nH]5)cc43)ncn2)CC1` [Example 64, 1-{6-[4-(methylsulfonyl)piperazin-1-yl]pyrimidin-4-yl}-6-(1H-pyrazol-5-yl)-1H-indazole] reads 18 nM; that for `CS(=O)(=O)N1CCN(c2cc(-n3ncc4ccc(-c5cn[nH]c5)cc43)ncn2)CC1` [Example 66, 1-{6-[4-(methylsulfonyl)piperazin-1-yl]pyrimidin-4-yl}-6-(1H-pyrazol-4-yl)-1H-indazole], 68 nM.
`c1cncc(-c2ccc3cnn(-c4cc(N5CCOCC5)ncn4)c3c2)c1` [Example 67, 1-(6-morpholin-4-ylpyrimidin-4-yl)-6-pyridin-3-yl-1H-indazole] had a half-maximal inhibitory concentration (IC50) in data set [2] of 130 nM.
In turn, `Cn1cc(-c2ccc3cnn(-c4cc(N5CCOCC5)ncn4)c3c2)cn1` [Example 68, 6-(1-methyl-1H-pyrazol-4-yl)-1-(6-morpholin-4-ylpyrimidin-4-yl)-1H-indazole] registered an IC50 in data set [2] of 79 nM.
In data set [2], `c1cc(-c2ccc3cnn(-c4cc(N5CCOCC5)ncn4)c3c2)[nH]n1` [Example 69, 1-(6-morpholin-4-ylpyrimidin-4-yl)-6-(1H-pyrazol-5-yl)-1H-indazole] had an IC50 of 10.5 nM. This IC50 is about 7.5-fold lower than that of the compound before.
The same measure, in the same setting: as for `c1nc(N2CCOCC2)cc(-n2ncc3ccc(-c4cn[nH]c4)cc32)n1` [Example 70, 1-(6-morpholin-4-ylpyrimidin-4-yl)-6-(1H-pyrazo-4-yl)-1H-indazole], the figure is 77 nM; as for `c1nc(N2CCOCC2)cc(-n2ncc3ccc(C4CC4)cc32)n1` [Example 71, 6-cyclopropyl-1-(6-morpholin-4-ylpyrimidin-4-yl)-1H-indazole], 231 nM.
